Source: ChEMBL document CHEMBL1250451, “Mechanistic insights into a Ca2+-dependent family of alpha-mannosidases in a human gut symbiont” (Nat Chem Biol, 2010)

Columns and labels:
Type in all cases: protein assay
[1] = biological target: T1, Alpha-1,2-mannosidase (BT_2199) (Bacteroides thetaiotaomicron) (UniProt Q8A5N9); test: Activity of Bacteroides thetaiotaomicron GH92 alpha-mannosidase 2199 assessed as recovery of enzyme activity at 1 mM in presence of 7 mM V(3+) ions and in presence of 5 mM EDTA in 100 mM pH 7 MOPS buffer relative to enzyme activity in presence of calcium
T1 sequence (whole entry): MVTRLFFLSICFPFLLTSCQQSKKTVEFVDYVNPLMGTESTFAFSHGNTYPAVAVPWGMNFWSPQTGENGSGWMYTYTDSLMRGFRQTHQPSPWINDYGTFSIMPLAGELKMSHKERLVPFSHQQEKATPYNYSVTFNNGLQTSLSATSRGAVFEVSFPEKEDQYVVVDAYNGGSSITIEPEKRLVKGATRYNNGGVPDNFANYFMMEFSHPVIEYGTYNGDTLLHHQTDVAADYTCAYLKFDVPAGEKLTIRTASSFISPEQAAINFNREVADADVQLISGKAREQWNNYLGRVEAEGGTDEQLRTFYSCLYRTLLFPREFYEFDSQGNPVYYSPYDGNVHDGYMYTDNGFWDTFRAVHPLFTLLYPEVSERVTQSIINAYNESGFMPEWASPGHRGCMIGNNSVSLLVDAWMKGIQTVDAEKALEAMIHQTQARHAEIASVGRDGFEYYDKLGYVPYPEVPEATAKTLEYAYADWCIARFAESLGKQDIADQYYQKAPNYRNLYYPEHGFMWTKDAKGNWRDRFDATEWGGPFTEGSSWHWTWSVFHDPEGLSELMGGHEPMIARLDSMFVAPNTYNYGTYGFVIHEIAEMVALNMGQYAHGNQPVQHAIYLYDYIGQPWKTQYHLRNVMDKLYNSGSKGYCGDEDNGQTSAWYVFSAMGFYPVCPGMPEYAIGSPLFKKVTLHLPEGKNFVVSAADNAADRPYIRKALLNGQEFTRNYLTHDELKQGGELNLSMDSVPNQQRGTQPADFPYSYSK

[2] = biological target: T1, Alpha-1,2-mannosidase (BT_2199) (Bacteroides thetaiotaomicron); test: Activity of Bacteroides thetaiotaomicron GH92 alpha-mannosidase 2199 assessed as recovery of enzyme activity at 1 mM in presence of 7 mM Ti(3+) ions and in presence of 5 mM EGTA in 100 mM pH 7 MOPS buffer relative to enzyme activity in presence of calcium
[3] = biological target: T2, Alpha-1,2-mannosidase (BT_3990) (Bacteroides thetaiotaomicron) (UniProt Q8A0N1); test: Activity of Bacteroides thetaiotaomicron GH92 alpha-mannosidase 3990 assessed as recovery of enzyme activity at 1 mM in presence of 7 mM Ti(3+) ions and in presence of 5 mM EDTA in 100 mM pH 7 MOPS buffer relative to enzyme activity in presence of calcium
T2 sequence (whole entry): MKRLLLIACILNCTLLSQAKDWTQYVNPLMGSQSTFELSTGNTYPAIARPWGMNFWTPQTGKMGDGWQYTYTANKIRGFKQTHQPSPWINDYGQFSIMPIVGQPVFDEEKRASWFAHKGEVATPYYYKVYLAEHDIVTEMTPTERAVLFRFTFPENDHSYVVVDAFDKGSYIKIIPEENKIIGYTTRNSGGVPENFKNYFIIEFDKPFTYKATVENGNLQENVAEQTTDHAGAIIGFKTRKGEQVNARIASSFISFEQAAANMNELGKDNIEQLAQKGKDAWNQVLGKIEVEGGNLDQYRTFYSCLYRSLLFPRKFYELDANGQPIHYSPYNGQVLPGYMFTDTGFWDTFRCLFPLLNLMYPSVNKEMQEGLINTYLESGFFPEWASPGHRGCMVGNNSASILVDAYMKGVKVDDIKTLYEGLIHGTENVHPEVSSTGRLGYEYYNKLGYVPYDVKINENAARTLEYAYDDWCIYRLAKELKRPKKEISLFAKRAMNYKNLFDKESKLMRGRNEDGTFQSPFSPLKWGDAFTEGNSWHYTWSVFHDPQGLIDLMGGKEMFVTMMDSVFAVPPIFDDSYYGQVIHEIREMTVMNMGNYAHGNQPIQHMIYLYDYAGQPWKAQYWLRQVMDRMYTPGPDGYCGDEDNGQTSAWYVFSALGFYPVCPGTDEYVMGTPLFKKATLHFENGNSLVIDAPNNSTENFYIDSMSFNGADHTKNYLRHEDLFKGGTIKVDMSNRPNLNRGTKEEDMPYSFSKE

Measured: Activity

O=[N+]([O-])c1ccc(O[C@H]2O[C@H](CO)[C@@H](O)[C@H](O)[C@@H]2O)cc1
0%: all assays above
